*1 amine or outer side, *2 acyl side, *3 side chain or, on linkers, in order; H or OH if unused. Where a SMILES comes first, the peptide text is derived from it. Bridges are numbered along the chain shown (N, C = ends). Side-chain parts run from the residue outwards. [ ]: non-standard residue; d: D form. The star is where a group is joined. C20 diacid = O=C(O)CCCCCCCCCCCCCCCCCCC(=O)*; γGlu = O=C(O)[C@H](CCC(=O)[*:2])N[*:1]; AEEA = NCCOCCOCC(=O)O; Aib = CC(C)(N)C(=O)O
System: mouse plasma albumin
Experiment: Plasma protein binding (PPB) test, mouse
Assay type: in vitro ADME
Set-up: key to PPB % unbound (H/M), M: NA means the plasma-protein binding is too high, and no free drug can be detected under a normal concentration of plasma protein
Settings: ultracentrifugation
Method: To study the binding of the test compounds to human/mouse plasma albumin.
1. Matrix preparation: On the day of the experiment, the plasma was thawed in cold water and centrifuged at 3220 rpm for 5 min to remove all blood clots. The pH of the obtained plasma was measured and adjusted to 7.4±0.1 using 1% phosphoric acid or 1N sodium hydroxide as needed.
2. Dilution steps of the test compounds: The test compounds were dissolved in dimethyl sulfoxide (DMSO) to prepare stock solutions at concentrations of 10 mM and 2 mM, respectively. A 40 μM working solution was prepared by diluting 2 μL of the stock solution (2 mM) with 98 μL of DMSO. A 400 μM working solution of the control compound was prepared by diluting 10 μL of the stock solution with 240 μL of DMSO. The working solution of the compound (5 μL) was mixed with the blank matrix (995 μL) at a ratio of 1:200 to prepare the loading matrix.
3.1 An equal amount of 30 μL of the loading matrix (n=2) was transferred to the sample collection plate to prepare samples of time 0 (TO) for residue determination. The samples were immediately matched to the corresponding blank buffer in a final volume of 60 μL with a 1:1 volume ratio of plasma to buffer in each well. Then, 60 μL of 4% H3PO4 in H2O and 480 μL of stop solution containing an internal standard were then added to the TO samples of the test compounds. They were then stored at 2-8° C. with other samples pending for further processing.
3.2 The remaining plasma samples were pre-incubated in a carbon dioxide incubator at 37±1° C. for 30 min. The prepared protein-free samples (F samples) and loading matrix samples (230 μL) were transferred to polycarbonate tubes (n=2) and ultracentrifuged at 37° C. and 155000×g (35000 rpm) for 4 hours.
3.3 To prepare T samples (test samples), an additional matrix-containing sample was transferred to a separate 96-well plate (sample incubation plate) and incubated at 37° C. for 4 hours.
3.4 After centrifugation, 30 μL of protein-free sample and 30 μL of T sample were transferred from the second layer of supernatant (below the upper layer) to a new sample collection plate. Each sample was mixed with the corresponding blank buffer or matrix in a final volume of 60 μL with a matrix:buffer volume ratio of 1:1. 60 μL of 4% H3PO4 aqueous solution and 480 μL of stop solution (containing internal standard) were added to all samples. The mixture was centrifuged at 4000 rpm for 20 min, and 100 μL of the supernatant of each sample was taken for LC-MS/MS analysis.

Compound: CC[C@H](C)[C@H](NC(=O)[C@H](CC(C)C)NC(=O)[C@H](Cc1c[nH]c2ccccc12)NC(=O)[C@@H]1CCC(=O)NCCCC[C@H](NC(=O)[C@H](CCC(N)=O)NC(=O)[C@H](C)NC(=O)[C@H](CCCCNC(=O)COCCOCCNC(=O)COCCOCCNC(=O)CC[C@H](NC(=O)CCCCCCCCCCCCCCCCCCC(=O)O)C(=O)O)NC(=O)[C@H](CCCCN)NC(=O)[C@H](CC(=O)O)NC(=O)[C@H](CC(C)C)NC(=O)C(C)(C)NC(=O)[C@@H](NC(=O)[C@H](CO)NC(=O)[C@H](Cc2ccc(O)cc2)NC(=O)[C@H](CC(=O)O)NC(=O)[C@H](CO)NC(=O)[C@@H](NC(=O)[C@H](Cc2ccccc2)NC(=O)[C@@H](NC(=O)CNC(=O)[C@H](CCC(=O)O)NC(=O)C(C)(C)NC(=O)[C@@H](N)Cc2ccc(O)cc2)[C@@H](C)O)[C@@H](C)O)[C@@H](C)CC)C(=O)N[C@@H](C)C(=O)N[C@@H](Cc2ccccc2)C(=O)N[C@@H](C(C)C)C(=O)N1)C(=O)N[C@@H](C)C(=O)NCC(=O)NCC(=O)N1CCC[C@H]1C(=O)N[C@@H](CO)C(=O)N[C@@H](CO)C(=O)NCC(=O)N[C@@H](C)C(=O)N1CCC[C@H]1C(=O)N1CCC[C@H]1C(=O)N1CCC[C@H]1C(=O)N[C@@H](CO)C(N)=O [WX-001] (H-Y[Aib]EGTFTSDYSI[Aib]LDKK([AEEA-AEEA-γGlu-C20 diacid])AQKAFVEWLIAGGPSSGAPPPS-NH2; lactam 20-24)
- PPB % unbound (H/M), M: NA/NA
